Experimental findings from US9029337B2, “Modulation of factor 7 expression” (Isis Pharmaceuticals, Inc., priority 2007, dated 2015) are described below.

Strand notation (5' to 3'): a small letter for the sugar, then the base; units joined by * are phosphorothioate-linked, units joined directly phosphodiester-linked; [ ] holds rarer units or linkages, { } end groups; capitals alone tell only the bases. e = 2'-O-(2-methoxyethyl) (MOE); [5mC] = 5-methylcytosine; d = 2'-deoxy (DNA)

For orientation: % Inhibition means the relative decrease from the control value, in per cent. Read a low % Inhibition as a weak effect.

The test system of the data set is human Factor 7 mRNA. Description: Antisense inhibition of human Factor 7 mRNA in HepB3 cells, 50 nM antisense oligonucleotide, lipofectin. The format is cell-based. The following applies: Table 1, 50 nM, lipofectin, approximately 24 hours, relative to untreated control cells. On the procedure: Antisense oligonucleotides targeted to a Factor 7 nucleic acid were tested for their effects on Factor 7 mRNA in vitro. Cultured HepB3 cells at a density of 4,000 cells per well were transfected using lipofectin reagent with 50 nM antisense oligonucleotide. After a treatment period of approximately 24 hours, RNA was isolated from the cells and Factor 7 mRNA levels were measured by real-time RT-PCR, as described herein. Factor 7 mRNA levels were adjusted according to total RNA content as measured by RIBOGREEN®. Results are presented as percent inhibition of Factor 7, relative to untreated control cells.
(§1) Antisense oligonucleotides targeted to a Factor 7 nucleic acid were designed and tested for their effects on Factor 7 mRNA in vitro. Certain antisense oligonucleotides from Table 3 were also retested for their effects on Factor 7 mRNA in vitro. Cultured HepB3 cells at a density of 4,000 cells per well were transfected using lipofectin reagent with 50 nM antisense oligonucleotide. After a treatment period of approximately 24 hours, RNA was isolated from the cells and Factor 7 mRNA levels were measured by real-time RT-PCR, as described herein. Human Factor 7 primer probe set RTS 2927 was used to measure mRNA levels. Factor 7 mRNA levels were adjusted according to total RNA content as measured by RIBOGREEN®. Results are presented as percent inhibition of Factor 7, relative to untreated control.
as §1, with “tested” for “tested for their effects on Factor 7 mRNA in vitro. Certain antisense oligonucleotides from Table 3 were also retested”
These gapmers were designed by creating gapmers shifted slightly upstream and downstream (i.e. “microwalk”) of the original gapmers from Table 7. Gapmers were also created with various motifs, e.g. 5-10-5 MOE, 3-14-3 MOE, and 2-13-5 MOE. These gapmers were tested in vitro. Cultured HepB3 cells at a density of 4,000 cells per well were transfected using lipofectin reagent with 50 nM antisense oligonucleotide. After a treatment period of approximately 24 hours, RNA was isolated from the cells and Factor 7 mRNA levels were measured by real-time RT-PCR. Factor 7 mRNA levels were adjusted according to total RNA content, as measured by RIBOGREEN®. Results are presented as percent inhibition of Factor 7, relative to untreated control cells.
For the substance “407668 (antisense eG*eA*eA*eG*e[5mC]*d[5mC]*dT*dT*dA*d[5mC]*d[5mC]*dT*dG*d[5mC]*d[5mC]*eA*eT*eG*eG*eA) [compound 407668]”, the “% Inhibition” value is 54%.

“407669 (antisense eT*eA*eG*eA*e[5mC]*d[5mC]*d[5mC]*dT*d[5mC]*dA*dG*dT*dG*dA*dG*eT*eG*eT*e[5mC]*eG) [compound 407669]”: the “% Inhibition” value is recorded as 57%.

For the substance “407886 (antisense eG*e[5mC]*eA*eG*eA*dG*dG*dA*dG*d[5mC]*d[5mC]*dT*dG*dA*dG*eG*eG*e[5mC]*e[5mC]*eT) [compound 407886]”, the “% Inhibition” value is 72%.

For the substance “407887 (antisense e[5mC]*e[5mC]*eA*eG*eG*d[5mC]*dA*dG*d[5mC]*d[5mC]*d[5mC]*dT*dG*dA*dA*eG*e[5mC]*e[5mC]*e[5mC]*eA) [compound 407887]”, the “% Inhibition” value is given as 78%.

Turning to “407888 (antisense e[5mC]*eG*eA*eA*eG*dA*d[5mC]*dT*dG*d[5mC]*dA*dG*d[5mC]*d[5mC]*dA*eG*eG*e[5mC]*eA*eG) [compound 407888]”, the “% Inhibition” value came out at 34%.

With “407889 (antisense eT*e[5mC]*e[5mC]*eT*eG*dG*dG*dT*dT*dA*d[5mC]*dG*dA*dA*dG*eA*e[5mC]*eT*eG*e[5mC]) [compound 407889]”, the “% Inhibition” value was determined as 54%.

As for “407890 (antisense e[5mC]*eA*eG*eG*eG*dA*dG*d[5mC]*d[5mC]*d[5mC]*dG*dG*d[5mC]*d[5mC]*dG*e[5mC]*eA*eG*e[5mC]*eT) [compound 407890]”, the “% Inhibition” value worked out at 60%.

On to “407891 (antisense e[5mC]*eA*eT*eG*eG*dA*d[5mC]*dT*dT*dG*dA*dG*dG*d[5mC]*dA*e[5mC]*eA*e[5mC]*eT*eG) [compound 407891]”, for which the “% Inhibition” value came out at 66%.

As for “407892 (antisense e[5mC]*e[5mC]*e[5mC]*e[5mC]*eA*dT*dT*d[5mC]*dT*dG*dG*d[5mC]*dA*dT*dG*eG*eA*e[5mC]*eT*eT) [compound 407892]”, the “% Inhibition” value turned out to be 68%.

With “407893 (antisense eT*e[5mC]*eG*eA*eA*dG*dG*d[5mC]*dA*dG*dG*dG*dA*dG*dG*e[5mC]*eA*eG*eA*eA) [compound 407893]”, the “% Inhibition” value is recorded as 33%.

Regarding “407894 (antisense eG*eT*eT*e[5mC]*e[5mC]*dG*dG*d[5mC]*d[5mC]*d[5mC]*dT*d[5mC]*dG*dA*dA*eG*eG*e[5mC]*eA*eG) [compound 407894]”, the “% Inhibition” value amounted to 77%.

Regarding “407895 (antisense e[5mC]*eA*e[5mC]*eA*e[5mC]*dA*dG*dA*dT*d[5mC]*dA*dG*d[5mC]*dT*dG*eG*eT*e[5mC]*eA*eT) [compound 407895]”, the “% Inhibition” value amounted to 72%.

As for “407896 (antisense e[5mC]*eG*eT*eG*eT*dG*dG*dT*d[5mC]*dA*d[5mC]*dT*dG*d[5mC]*dA*eG*eT*eA*e[5mC]*eT) [compound 407896]”, the “% Inhibition” value is 73%.

With “407897 (antisense eG*e[5mC]*eT*eT*eG*dG*dT*dG*d[5mC]*d[5mC]*d[5mC]*dG*dT*dG*dT*eG*eG*eT*e[5mC]*eA) [compound 407897]”, the “% Inhibition” value is 77%.

As for “407898 (antisense e[5mC]*e[5mC]*eA*eG*e[5mC]*dA*dG*dA*dG*dA*dG*dT*dA*d[5mC]*d[5mC]*e[5mC]*e[5mC]*eT*e[5mC]*eG) [compound 407898]”, the “% Inhibition” value was 49%.

Take “407901 (antisense eT*eG*eG*eT*eG*dT*dT*dG*dA*dT*d[5mC]*dA*dG*dG*dG*eT*e[5mC]*e[5mC]*e[5mC]*e[5mC]) [compound 407901]”: the “% Inhibition” value is listed as 89%.

With “407902 (antisense e[5mC]*eA*e[5mC]*e[5mC]*e[5mC]*dA*dG*dA*dT*dG*dG*dT*dG*dT*dT*eG*eA*eT*e[5mC]*eA) [compound 407902]”, the “% Inhibition” value came out at 86%.

As for “407903 (antisense e[5mC]*e[5mC]*eG*e[5mC]*eG*dG*dA*dG*dA*d[5mC]*d[5mC]*dA*d[5mC]*d[5mC]*d[5mC]*eA*eG*eA*eT*eG) [compound 407903]”, the “% Inhibition” value is recorded as 98%.

With “407904 (antisense eG*eA*eA*eA*e[5mC]*dA*dG*dT*dG*dG*dG*d[5mC]*d[5mC]*dG*d[5mC]*eG*eG*eA*eG*eA) [compound 407904]”, the “% Inhibition” value turned out to be 83%.

In the case of “407905 (antisense e[5mC]*e[5mC]*eA*eG*eT*dT*d[5mC]*dT*dT*dG*dA*dT*dT*dT*dT*eG*eT*e[5mC]*eG*eA) [compound 407905]”, the “% Inhibition” value was 40%.

Turning to “407906 (antisense eA*e[5mC]*e[5mC]*eA*e[5mC]*dG*dG*dG*d[5mC]*dT*dG*dG*dT*dG*d[5mC]*eA*eG*eG*e[5mC]*eG) [compound 407906]”, the “% Inhibition” value was found to be 4%.

Turning to “407907 (antisense eA*eA*eT*eG*eA*dG*dA*dA*dG*d[5mC]*dG*d[5mC]*dA*d[5mC]*dG*eA*eA*eG*eG*e[5mC]) [compound 407907]”, the “% Inhibition” value is reported as 35%.

As to “407908 (antisense e[5mC]*e[5mC]*e[5mC]*e[5mC]*eA*dG*d[5mC]*d[5mC]*dG*d[5mC]*dT*dG*dA*d[5mC]*d[5mC]*eA*eA*eT*eG*eA) [compound 407908]”, the “% Inhibition” value came out at 47%.

“407909 (antisense e[5mC]*e[5mC]*eA*eT*e[5mC]*d[5mC]*dG*dA*dG*dT*dA*dG*d[5mC]*d[5mC]*dG*eG*e[5mC]*eA*e[5mC]*eA) [compound 407909]”: the “% Inhibition” value came out at 77%.

Turning to “407911 (antisense e[5mC]*e[5mC]*e[5mC]*e[5mC]*eT*dT*dG*d[5mC]*dA*dG*dG*dA*dG*dT*d[5mC]*e[5mC]*eT*eT*eG*e[5mC]) [compound 407911]”, the “% Inhibition” value was found to be 74%.

In the case of “407912 (antisense e[5mC]*e[5mC]*e[5mC]*eG*eG*dT*dA*dG*dT*dG*dG*dG*dT*dG*dG*e[5mC]*eA*eT*eG*eT) [compound 407912]”, the “% Inhibition” value was 46%.

In the case of “407913 (antisense eG*eA*eT*eG*e[5mC]*d[5mC]*d[5mC]*dG*dT*d[5mC]*dA*dG*dG*dT*dA*e[5mC]*e[5mC]*eA*e[5mC]*eG) [compound 407913]”, the “% Inhibition” value is 74%.

Take “407914 (antisense e[5mC]*e[5mC]*eA*eG*e[5mC]*dT*dG*dA*d[5mC]*dG*dA*dT*dG*d[5mC]*d[5mC]*e[5mC]*eG*eT*e[5mC]*eA) [compound 407914]”: the “% Inhibition” value was 82%.

Consider “407915 (antisense eG*eT*eT*eG*e[5mC]*dG*d[5mC]*dA*dG*d[5mC]*d[5mC]*d[5mC]*dT*dG*dG*e[5mC]*e[5mC]*e[5mC]*e[5mC]*eA) [compound 407915]”, for which the “% Inhibition” value amounted to 83%.

With “407916 (antisense eG*eT*eG*eG*e[5mC]*d[5mC]*d[5mC]*dA*d[5mC]*dG*dG*dT*dT*dG*d[5mC]*eG*e[5mC]*eA*eG*e[5mC]) [compound 407916]”, the “% Inhibition” value came out at 53%.

Regarding “407917 (antisense eA*e[5mC]*eA*e[5mC]*e[5mC]*d[5mC]*d[5mC]*dA*dA*dA*dG*dT*dG*dG*d[5mC]*e[5mC]*e[5mC]*eA*e[5mC]*eG) [compound 407917]”, the “% Inhibition” value worked out at 70%.

“407918 (antisense e[5mC]*e[5mC]*eT*eG*eG*dT*dG*dT*dA*d[5mC]*dA*d[5mC]*d[5mC]*d[5mC]*d[5mC]*eA*eA*eA*eG*eT) [compound 407918]”: the “% Inhibition” value is reported as 72%.

For the substance “407919 (antisense eT*e[5mC]*eG*eA*eT*dG*dT*dA*d[5mC]*dT*dG*dG*dG*dA*dG*eA*e[5mC]*e[5mC]*e[5mC]*eT) [compound 407919]”, the “% Inhibition” value stood at 84%.

Consider “407920 (antisense eT*eG*eA*eG*e[5mC]*dG*d[5mC]*dA*dT*dG*dA*dG*d[5mC]*dT*dT*eT*eT*eG*e[5mC]*eA) [compound 407920]”, for which the “% Inhibition” value turned out to be 65%.

On to “407921 (antisense e[5mC]*e[5mC]*eA*e[5mC]*eA*dG*dG*d[5mC]*d[5mC]*dA*dG*dG*dG*d[5mC]*dT*eG*e[5mC]*eT*eG*eG) [compound 407921]”, for which the “% Inhibition” value was 65%.

Take “407922 (antisense eT*e[5mC]*eG*eA*e[5mC]*dG*d[5mC]*dA*dG*d[5mC]*d[5mC]*dT*dT*dG*dG*e[5mC]*eT*eT*eT*e[5mC]) [compound 407922]”: the “% Inhibition” value was determined as 82%.

For the substance “407923 (antisense e[5mC]*eA*eG*eG*eA*d[5mC]*dA*dG*dT*dT*d[5mC]*dG*dA*d[5mC]*dG*e[5mC]*eA*eG*e[5mC]*e[5mC]) [compound 407923]”, the “% Inhibition” value turned out to be 76%.
